# Assay results: patent US20120225093A1, “Abrogating HIV-1 Infection via Drug-Induced Reactivation of Apoptosis” (UNIVERSITY OF MEDICINE AND DENTISTRY OF NEW JERSEY, priority 2010, published 2012)
# How the values were obtained:
# HIV-1 LTR = experiment: RNase protection assay of pLTR-FF transcripts (elongation, RNA stability); format: cell-based
# Method: RPA was performed with 10 μg of cytoplasmic RNA and 5 μg of nuclear RNA, using the RPAIII kit from Ambion (Austin, Tex.) according to the manufacturer's instructions. Synthesis of radiolabeled RNA and protection assays were performed as described in Young et al. Mol Cell Biol 2003, 23:6373-6384. To generate antisense RNA probe against the HIV-1 major splice site, firefly luciferase and Renilla luciferase pBSII-KS+HIV (+80-341), pSP-luc and pSP-rluc were linearized with HindIII, XbaI and BsaI, respectively. The resulting probes were 309, 390 and 245 nt long, respectively. […]
# Results of the deletion analysis implied that sensitivity to the drugs is conferred by the promoter or another feature in the HIV-1 LTR. […] Nuclear and cytoplasmic RNA was analyzed in RNase protection assays using a probe complementary to the promoter-proximal region of HIV transcripts (FIG. 6A). […]
# To examine the possibility that the drugs decrease the stability of RNA transcribed from the HIV promoter, cells transfected with pLTR-FF were incubated in the presence or absence of CPX. Actinomycin D was added to some cultures 12 hr later to block further transcription, and FF RNA was monitored by RPA at intervals thereafter (FIG. 6D, top panel). FF RNA levels were quantified and normalized to the levels at 12 hr (FIG. 6D, bottom panel). […]
# H9-HIV cells = experiment: TUNEL DNA fragmentation in H9-HIV cells; format: cell-based; conditions: 24 hr; between 10 and 20 μM CPX, leveled off at 40 μM
# Method: The potential across the mitochondrial membrane of live cells was determined flow-cytometrically with the lipophilic cationic fluorochrome JC-1 (5,5′,6,6′-tetrachloro-1,1′,3,3′-tetraethylbenzimidazolcarbocyanine iodide) immediately after sample harvest (BD™ Mitoscreen Kit, BD Biosciences; San Diego, Calif.). DNA fragmentation was quantified flow-cytometrically, using a TUNEL (terminal deoxynucleotide transferase dUTP nick end-labeling) assay (APO-BRDU™; Phoenix Flow Systems; San Diego, Calif.) and a dual-color assay for annexin V binding and 7-AAD exclusion (Annexin V-PE 7-AAD Apoptosis Detection Kit I™; BD Biosciences Pharmingen, San Jose, Calif.). The apoptotic volume decrease of cells was assessed by the reduction of their diameter (VI-CELL™; Beckman Coulter; Fullerton, Calif.).
# The relationship between iron chelation and apoptosis was assessed using the TUNEL assay to measure DNA fragmentation. DEF induces this late apoptotic event in HIV-expressing ACH-2 cells. Similarly, CPX triggered DNA fragmentation in H9-HIV cells in a dose-dependent manner with a steep, almost 10-fold increase in TUNEL-positive cells between 10 and 20 μM CPX that leveled off at 40 μM (FIG. 11C). […]
# HIV-1 = experiment: Small trial of virological response to DEF in HIV-infected volunteers; format: in vivo, human
compound,measurement,setting,value
"Cc1cc(C2CCCCC2)n(O)c(=O)c1 [CPX, 6-cyclohexyl-1-hydroxy-4-methylpyridin-2[1H]-one]",rate of FF RNA decay,HIV-1 LTR; actinomycin D added at 12 hr,not affected
same,"FF mRNA level at 12 hr post-transfection, less than control",HIV-1 LTR; in the presence of CPX,~50%
same,increase in TUNEL-positive cells,H9-HIV cells,~10 fold
"Cc1c(O)c(=O)ccn1C [DEF, 3-hydroxy-1,2-dimethylpyridin-4(1H)-one]",virological response after drug withdrawal,HIV-1,persistent off-medicine antiretroviral activity even eight weeks after drug withdrawal
